Values joined by “and” are separate entries in the source; they are usually repeats but may differ in a detail not shown here. Equal entries are not always repeated. Structures can show the parent of a compound that is named as a salt.
Tests used:
[1] = test system: IL-17 production by CD4 T cells; assay: Human Th17 assay (IL-17 production by CD4 T cells under Th17 differentiation conditions); format: cell-based; settings: Homo sapiens, CD4+ T, 72 h, IL-17 in supernatant after 3 days
Outline: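 Primary CD4+ T cells from healthy-donor PBMC, preincubated 1 h with titrated compound (0.2% DMSO), then activated with anti-CD3/CD28 beads plus anti-IL4, anti-IFNγ, IL1β, IL23, IL6, TGFβ and IL2.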

[2] = biological target: T1, human RORγt ligand binding domain (RORγt LBD) (Homo sapiens, UniProt P51449); assay: RORγt ThermoFluor assay (thermal shift, ligand binding affinity); settings: estimated from concentration response of thermal shift
T1 construct: His-tag (N); TurboTEV protease cleavage site (ENLYFQG) (N); made in house; host or cells: E. coli (pHIS1, modified pET vector)
T1 sequence (P51449 with tags, fused parts or gaps): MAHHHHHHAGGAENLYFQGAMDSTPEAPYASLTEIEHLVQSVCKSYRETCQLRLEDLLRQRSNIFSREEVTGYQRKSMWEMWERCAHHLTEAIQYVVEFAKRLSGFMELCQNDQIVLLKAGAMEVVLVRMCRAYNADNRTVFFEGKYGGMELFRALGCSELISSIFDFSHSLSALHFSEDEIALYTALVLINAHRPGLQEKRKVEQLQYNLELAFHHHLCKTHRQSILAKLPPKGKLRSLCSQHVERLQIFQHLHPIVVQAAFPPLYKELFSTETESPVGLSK
Outline: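 Thermal shift of 0.065 mg/mL RORγt with 60 μM 1,8-ANS in 100 mM Hepes pH 7.0, 10 mM NaCl, 2.5 mM GSH, 0.002% Tween-20. Compounds in 1:2 series from 10 mM DMSO stock. Dye fluorescence (500 nm emission) tracked versus temperature; ΔTm used to derive KD.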

human RORγt LBD = biological target: T2, human RORγt LBD (Homo sapiens, UniProt P51449); assay: RORγt reporter assay (GAL4-RORγt LBD luciferase in HEK293T cells); format: cell-based; settings: for IC50: HEK293T cells, 24 hours compound treatment; for inhibition at 6 µM: HEK-293T, read-out: RORγt reporter Assay, % inhibition @ 6 μM, HEK293T cells, 6 μM compound
T2 construct: expressed in transfected cells
T2 sequence (P51449 258-518): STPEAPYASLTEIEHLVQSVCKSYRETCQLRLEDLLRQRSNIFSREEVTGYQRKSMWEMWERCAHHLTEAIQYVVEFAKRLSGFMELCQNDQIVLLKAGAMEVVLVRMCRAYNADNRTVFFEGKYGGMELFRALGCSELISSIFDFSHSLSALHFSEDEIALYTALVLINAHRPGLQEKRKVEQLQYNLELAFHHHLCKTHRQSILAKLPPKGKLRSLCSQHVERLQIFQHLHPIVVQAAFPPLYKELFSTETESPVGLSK
Outline: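 HEK293T cells transiently co-transfected with pBIND (GAL4 DBD fused to wild-type human RORγt LBD, plus SV40-driven renilla luciferase) and pGL4.31 GAL4-responsive firefly luciferase reporter. Plated in phenol-red-free DMEM with 5% lipid-reduced FCS and treated with compound for 24 h. Firefly/renilla luminescence ratio plotted against compound concentration.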

Compound	IC50 [1]	Kd [2]	IC50 (human RORγt LBD)	inhibition at 6 µM (human RORγt LBD)
CCN(C)c1nc2ccc(C(O)(c3ccncc3)c3cncn3C)cc2c(Cl)c1-c1ccccc1 (centres unmarked) [Example 50, {4-Chloro-2-[ethyl(methyl)amino]-3-phenylquinolin-6-yl}(1-methyl-1H-imidazol-5-yl)pyridin-4-ylmethanol•TFA]	0.036 µM	0.005 µM	0.007 µM and ~0.009 µM and < 0.05 µM	105%
COc1cccc(C(O)(c2cccnc2)c2ccc3nc(Cl)c(-c4ccccc4)c(Cl)c3c2)c1 (centres unmarked) [Example 54, (2,4-Dichloro-3-phenylquinolin-6-yl)(3-methoxyphenyl)pyridin-3-ylmethanol]	0.36 µM	0.039 µM	0.15 µM	97%
OC(c1ccc(Cl)nc1)(c1cccc(Cl)c1)c1ccc2nc(Cl)c(-c3ccccc3)c(Cl)c2c1 (centres unmarked) [Example 56, (3-Chlorophenyl)(6-chloropyridin-3-yl)(2,4-dichloro-3-phenylquinolin-6-yl)methanol]	0.24 µM	0.04 µM	0.17 µM	91%
OC(c1ccc(Cl)nc1)(c1cccc(F)c1)c1ccc2nc(Cl)c(-c3ccccc3)c(Cl)c2c1 (centres unmarked) [Example 57, (6-Chloropyridin-3-yl)(2,4-dichloro-3-phenylquinolin-6-yl)(3-fluorophenyl)methanol]	0.28 µM	0.055 µM	0.16 µM	90%
COc1ccc(C(O)(c2cccnc2)c2ccc3nc(N(C)C)c(-c4ccccc4)c(Cl)c3c2)cc1 (centres unmarked) [Example 62, [4-Chloro-2-(dimethylamino)-3-phenylquinolin-6-yl](4-methoxyphenyl)pyridin-3-ylmethanol•TFA]	0.7 µM	0.42 µM	0.25 µM	98%
COCCN(C)c1nc2ccc(C(O)(c3ccncc3)c3cncn3C)cc2c(Cl)c1-c1ccccc1 (centres unmarked) [Example 63, {4-Chloro-2-[(2-methoxyethyl)(methyl)amino]-3-phenylquinolin-6-yl}(1-methyl-1H-imidazol-5-yl)pyridin-4-ylmethanol•TFA]	0.063 µM	0.015 µM	0.0086 µM	106%
COc1cccc(C(O)(c2ccc(Cl)nc2)c2ccc3nc(Cl)c(-c4ccccc4)c(Cl)c3c2)c1 (centres unmarked) [Example 65, (6-Chloropyridin-3-yl)(2,4-dichloro-3-phenylquinolin-6-yl)(3-methoxyphenyl)methanol]	0.19 µM	0.2 µM	0.16 µM	103%
Cn1cncc1C(O)(c1ccnc(Cl)c1)c1ccc2nc(Cl)c(-c3ccccc3)c(Cl)c2c1 (centres unmarked) [Example 66, (2-Chloropyridin-4-yl)(2,4-dichloro-3-phenylquinolin-6-yl)(1-methyl-1H-imidazol-5-yl)methanol•TFA]	0.059 µM	0.0017 µM	0.01 µM	105%
COc1cc(C(O)(c2ccc3nc(Cl)c(-c4ccccc4)c(Cl)c3c2)c2cncn2C)ccn1 (centres unmarked) [Example 68, (2,4-Dichloro-3-phenylquinolin-6-yl)(2-methoxypyridin-4-yl)(1-methyl-1H-imidazol-5-yl)methanol•TFA]	0.048 µM	0.0039 µM	0.0058 µM	103%
COc1cccc(C(O)(c2ccc(C)nc2)c2ccc3nc(Cl)c(-c4ccccc4)c(Cl)c3c2)c1 (centres unmarked) [Example 69, (2,4-Dichloro-3-phenylquinolin-6-yl)(3-methoxyphenyl)(6-methylpyridin-3-yl)methanol•TFA]	0.61 µM	0.3 µM	0.15 µM	99%
Cc1ccc(C(O)(c2cccc(Cl)c2)c2ccc3nc(Cl)c(-c4ccccc4)c(Cl)c3c2)cn1 (centres unmarked) [Example 70, (3-Chlorophenyl)(2,4-dichloro-3-phenylquinolin-6-yl)(6-methylpyridin-3-yl)methanol•TFA]	0.63 µM	0.77 µM	0.047 µM	95%
Cc1ccc(C(O)(c2cccc(F)c2)c2ccc3nc(Cl)c(-c4ccccc4)c(Cl)c3c2)cn1 (centres unmarked) [Example 71, (2,4-Dichloro-3-phenylquinolin-6-yl)(3-fluorophenyl)(6-methylpyridin-3-yl)methanol•TFA]	0.69 µM	0.31 µM	0.082 µM	94%
Cn1cncc1C(O)(c1ccncc1)c1ccc2nc(Cl)c(-c3ccccc3)c(N3CCC(O)CC3)c2c1 (centres unmarked) [Example 73, 1-{2-Chloro-6-[hydroxy(1-methyl-1H-imidazol-5-yl)pyridin-4-ylmethyl]-3-phenylquinolin-4-yl}piperidin-4-ol•TFA]	1.2 µM	0.018 µM	0.36 µM	88%
CCCCN(C)c1nc2ccc(C(O)(c3ccncc3)c3cncn3C)cc2c(Cl)c1-c1ccccc1 (centres unmarked) [Example 76, {2-[Butyl(methyl)amino]-4-chloro-3-phenylquinolin-6-yl}(1-methyl-1H-imidazol-5-yl)pyridin-4-ylmethanol•TFA]	0.04 µM	0.0023 µM	0.0049 µM	100%

Results, then the molecule that gave them:

IC50 [1]	Kd [2]	IC50 (human RORγt LBD)	inhibition at 6 µM (human RORγt LBD)	Compound
0.12 µM	0.055 µM	0.025 µM	89%	COc1nc2ccc(C(O)(c3cccnc3)c3cccc(Cl)c3)cc2c(Cl)c1-c1ccccc1 (centres unmarked) [Example 80, (4-Chloro-2-methoxy-3-phenylquinolin-6-yl)(3-chlorophenyl)pyridin-3-ylmethanol•TFA]
1.3 µM	1.4 µM	0.89 µM	73%	CC(C)Oc1nc2ccc(C(O)(c3cccnc3)c3cccc(Cl)c3)cc2c(Cl)c1-c1ccccc1 (centres unmarked) [Example 84, [4-Chloro-2-(1-methylethoxy)-3-phenylquinolin-6-yl](3-chlorophenyl)pyridin-3-ylmethanol•TFA]
~0.002 µM	0.00011 µM	0.0053 µM	105%	Cc1cc(C(O)(c2ccc3nc(Cl)c(-c4ccccc4)c(Cl)c3c2)c2cncn2C)cc(Cl)n1 (centres unmarked) [Example 87, (2-Chloro-6-methylpyridin-4-yl)(2,4-dichloro-3-phenylquinolin-6-yl)(1-methyl-1H-imidazol-5-yl)methanol•TFA]
0.068 µM	0.0096 µM	0.037 µM	100%	CCOc1nc2ccc(C(O)(c3ccncc3)c3cncn3C)cc2c(Cl)c1-c1ccccc1 (centres unmarked) [Example 88, (4-Chloro-2-ethoxy-3-phenylquinolin-6-yl)(1-methyl-1H-imidazol-5-yl)pyridin-4-ylmethanol•TFA]
0.3 µM	0.034 µM	0.16 µM	99%	CC(C)Oc1nc2ccc(C(O)(c3ccncc3)c3cncn3C)cc2c(Cl)c1-c1ccccc1 (centres unmarked) [Example 89, [4-Chloro-2-(1-methylethoxy)-3-phenylquinolin-6-yl](1-methyl-1H-imidazol-5-yl)pyridin-4-ylmethanol•TFA]
0.8 µM	0.091 µM	0.3 µM	96%	CC(C)Oc1nc2ccc(C(O)(c3ccncc3)c3cncn3C)cc2c(N(C)C)c1-c1ccccc1 (centres unmarked) [Example 90, [4-(Dimethylamino)-2-(1-methylethoxy)-3-phenylquinolin-6-yl](1-methyl-1H-imidazol-5-yl)pyridin-4-ylmethanol•TFA]
0.15 µM	0.044 µM	0.12 µM	100%	CCOc1nc2ccc(C(O)(c3ccncc3)c3cncn3C)cc2c(N(C)C)c1-c1ccccc1 (centres unmarked) [Example 92, [4-(Dimethylamino)-2-ethoxy-3-phenylquinolin-6-yl](1-methyl-1H-imidazol-5-yl)pyridin-4-ylmethanol•TFA]
> 6 µM	0.023 µM	0.5 µM	98%	CC(=O)N1CCC(C(O)(c2cccnc2)c2ccc3nc(Cl)c(-c4ccccc4)c(Cl)c3c2)CC1 (centres unmarked) [Example 95, (1-Acetylpiperidin-4-yl)(2,4-dichloro-3-phenylquinolin-6-yl)pyridin-3-ylmethanol•TFA]
> 6 µM	0.029 µM	0.37 µM	98%	CC(=O)N1CCCC(C(O)(c2cccnc2)c2ccc3nc(Cl)c(-c4ccccc4)c(Cl)c3c2)C1 (centres unmarked) [Example 96, (1-Acetylpiperidin-3-yl)(2,4-dichloro-3-phenylquinolin-6-yl)pyridin-3-ylmethanol•TFA]
